Assay: Deodorization evaluation, forced-preference panel test of acetic acid malodor on cotton balls
Conditions: approx. 50 mg acetic acid on cotton ball in closed 32 oz jar; sprayed with 0.25 g, 0.5 g, 2.0 g and 5 g of approx. 0.8% by weight active in water; equilibrated 2 hrs; ten panelists; FIG. 1
Description: Deodorization Evaluations. Forced Preference Tests.
In the deodorization studies, two substances were tested for their ability to deodorize malodor: 1) Soyaethyl Morpholinium Ethosulfate (U.S. Pat. No. 4,851,214); and 2) Soyamidopropyl Ethylmorpholinium Ethosulfate (from this invention). These two products are Products 1 and 2, respectively, in FIG. 1. Both materials contain a quaternized morpholinium functionality within the deodorant molecule. All test formulations were approximately 0.8% by weight of active deodorizer/sequestrant in water.
Both products were tested as follows: Approximately 50 milligrams of acetic acid were placed on cotton balls (approximately 0.63 g in weight). The cotton balls were placed in 32 oz plastic jars, one per jar, and the lids were screwed on. After equilibrating for 4 hours the cotton balls were sprayed with predetermined amounts (0.25 g, 0.5 g, 2.0 g and 5 g) of deodorizing spray formulations and placed back in closed containers where they equilibrated for 2 hrs. In forced-preference testing, ten panelists were asked to open each jar and rate each on a scale from 1 to 10 with 10 being the highest level of acetic acid detected. The results of those ratings appear in FIG. 1 where the ratings given for each test substance is graphed versus the weight in grams of deodorizing formulations that had been applied to each cotton ball. […]

Compound	perceivable malodor (odor rating on a scale from 1 to 10, 10 being the highest level of acetic acid detected)
Soyamidopropyl Ethylmorpholinium Ethosulfate [Product 2]	reduced the perceivable malodor in a concentration-dependent fashion
CCCCCCCC/C=C\CCCCCCCC[N+]1(CC)CCOCC1 [Product 1, Soyaethyl Morpholinium Ethosulfate]	reduced the perceivable malodor in a concentration-dependent fashion

— US12502344B2, “Deodorants comprising alkylamido and alkenylamido-morpholinium compositions” (Colonial Chemical, Inc., priority 2021, dated 2025)
